US20090192164A1, “Treating agent of inflammatory bowel disease” (ASKA Pharmaceutical Co., Ltd., priority 2006, published 2009)

How the values were obtained:
[1] = test system: TNF-α production in THP-1 cells; experiment: TNF-α production-inhibiting activity in LPS-stimulated THP-1 cells; type: cell-based; details: Homo sapiens, 2 hours, ELISA
Method: (2) Measurement of TNF-α Production-Inhibiting Activity:
THP-1 (purchased from Dainippon Pharmaceuticals Co.) which are human-derived cultured cells, were suspended in RPMI1640 culture medium (10% fetal bovine serum, containing 100 units/mL penicillin) (1×10^5 cells/mL). Onto a 24-well culture plate, 1.6 mL of the THP-1 cell suspension was inoculated, and further 0.2 mL of the test substance as dissolved in RPM11640 culture medium and 0.2 mL of LPS (E. Coli 055: B5-derived, dissolved in RPM11640 culture medium, Difco) at a concentration of 10 μg/mL were added, followed by 2 hours' cultivation under the conditions of 37° C. and 5% CO2. The supernatant obtained upon centrifugation (500×g, 5 min.) was assayed with ELISA (Amersham Bioscience, TNF-α: Human, ELISA Biotrak System) to quantify TNF-α. The concentration of each test substance required to inhibit TNF-α production by 50% (IC50) was determined as follows. First, TNF-α production inhibition (%) values at various concentrations were determined by the following formula: […]
The TNF-α production inhibition (%) obtained by the above formula and the concentration of the test substance in that occasion were computed on Prism 4 for Windows Ver 4.02 (Graph Pad Software, Inc.) to calculate IC50 value.

[2] = Compounds' extinction rates in human liver S9; type: in vitro ADME; details: human liver S9 0.5 mg protein/mL, compound 1 μmol/L, 37° C.
Method: (3) Measurement of the Compounds' Extinction Rates:
To a potassium phosphate buffer solution (50 mmol/L, pH […]) containing NADPH production system (formed of 3.3 mmol/L MgCl2, 3.3 mmol/L glucose-6-phosphate, 1.3 mmol/L β-NAPD^+ and 0.4 unit/mL glucose-6-phosphate dehydrogenase), each test compound was added (in which occasion the final concentration was made 1 μmol/L) and incubated at 37° C. for 2 minutes. After the incubation, a suspension of human liver S9 (supernatant fraction obtained by centrifugation of crushed human liver cells at 9000×g) in potassium phosphate buffer solution was added to a final concentration of 0.5 mg protein/mL. This liquid reaction mixture was incubated at 37° C. for 5 minutes, to which 4 volume times thereof of acetonitrile was added, mixed, and cooled with ice. After the cooling with ice, the mixture was centrifuged (2000×g, 10 min.) and a part of the supernatant was recovered and analyzed with LSIMS/MS to calculate the residual ratio of unchanged substance in the reaction solution. The results are shown in the following Table B concurrently with the results of above (2) measurement of TNF-α production-inhibiting activity.

| SMILES | IC50 [1] | Parent compound remaining after 5 min in human liver S9 (%) [2] |
| --- | --- | --- |
| O=C(Cc1c(F)cccc1Cl)Nc1onc(-c2ccc(F)cc2)c1-c1ccncn1 [Compound B-2, 5-[(2-Chloro-6-fluorophenyl)acetylamino]-3-(4-fluorophenyl)-4-(4-pyrimidinyl)isoxazole] | 67.9 nM | 16.1% |
| Cc1cccc(CC(=O)Nc2onc(-c3ccc(F)cc3F)c2-c2ccncn2)c1 [Compound B-5, 3-(2,4-Difluorophenyl)-5-[(3-methylphenyl)acetylamino]-4-(4-pyrimidinyl)isoxazole] | 139 nM | 46.6% |
| Cc1cccc(CC(=O)Nc2onc(-c3cccc(C)c3)c2-c2ccncn2)c1 [Compound B-10, 3-(3-Methylphenyl)-5-[(3-methylphenyl)acetylamino]-4-(4-pyrimidinyl)isoxazole] | 152 nM | 38.5% |
| Cc1ccc(F)c(-c2noc(NC(=O)Cc3ccccc3)c2-c2ccncn2)c1 [Compound B-11, 3-(2-Fluoro-5-methylphenyl)-5-(phenylacetylamino)-4-(4-pyrimidinyl)isoxazole] | 90.5 nM | 39.8% |
| Cc1cccc(-c2noc(NC(=O)CCc3ccccc3)c2-c2ccncc2)c1 [Compound B-14, 3-(3-Methylphenyl)-5-(3-phenylpropionylamino)-4-(4-pyridyl)isoxazole] | 65.5 nM | 17.6% |
| Cc1cc(-c2noc(NC(=O)Cc3ccccc3)c2-c2ccncc2)ccc1F [Compound B-17, 3-(4-Fluoro-3-methylphenyl)-5-(phenylacetylamino)-4-(4-pyridyl)isoxazole] | 78.1 nM | 58.0% |
| Cc1cc(-c2noc(NC(=O)Cc3ccccc3Cl)c2-c2ccncc2)ccc1F [Compound B-18, 5-[(2-Chlorophenyl)acetylamino]-3-(4-fluoro-3-methylphenyl)-4-(4-pyridyl)isoxazole] | 85.2 nM | 59.7% |
| Cc1cc(-c2noc(NC(=O)CCc3ccccc3)c2-c2ccncc2)ccc1F [Compound B-19, 3-(4-Fluoro-3-methylphenyl)-5-(3-phenylpropionylamino)-4-(4-pyridyl)isoxazole] | 66 nM | 20.1% |
| CCCn1nc(-c2ccc(F)cc2)c(-c2ccncc2)c1C(=O)OCc1ccccc1Cl [Compound B-20] | 83.3 nM | 77.0% |
| CCn1nc(-c2ccc(F)cc2)c(-c2ccncn2)c1C(=O)OCc1ccc(Cl)cc1Cl [Compound B-21] | 61.5 nM | 56.4% |

The next compounds have a lower IC50 [1] than those just listed; values first:

| IC50 [1] | Parent compound remaining after 5 min in human liver S9 (%) [2] | SMILES |
| --- | --- | --- |
| 36.1 nM | 5.8% | O=C(Cc1ccccc1Cl)Nc1onc(-c2ccc(F)cc2)c1-c1ccncn1 [Compound B-1, 5-[(2-Chlorophenyl)acetylamino]-3-(4-fluorophenyl)-4-(4-pyrimidinyl)isoxazole] |
| 48.7 nM | 53.1% | O=C(Cc1ccccc1Cl)Nc1onc(-c2ccc(Cl)cc2)c1-c1ccncn1 [Compound B-3, 3-(4-Chlorophenyl)-5-[(2-chlorophenyl)acetylamino]-4-(4-pyrimidinyl)isoxazole] |
| 32.1 nM | 20.4% | O=C(Cc1ccccc1Cl)Nc1onc(-c2ccc(F)cc2F)c1-c1ccncn1 [Compound B-4, 5-[(2-Chlorophenyl)acetylamino]-3-(2,4-difluorophenyl)-4-(4-pyrimidinyl)isoxazole] |
| 28.5 nM | 24.1% | COc1ccc(-c2noc(NC(=O)Cc3ccccc3Cl)c2-c2ccncn2)c(F)c1 [Compound B-6, 5-[(2-Chlorophenyl)acetylamino]-3-(2-fluoro-4-methoxyphenyl)-4-(4-pyrimidinyl)isoxazole] |
| 36.7 nM | 21.2% | Cc1cccc(-c2noc(NC(=O)Cc3ccccc3Cl)c2-c2ccncn2)c1 [Compound B-7, 5-[(2-Chlorophenyl)acetylamino]-3-(3-methylphenyl)-4-(4-pyrimidinyl)isoxazole] |
| 49.2 nM | 43.6% | Cc1cccc(-c2noc(NC(=O)Cc3ccccc3Br)c2-c2ccncn2)c1 [Compound B-8, 5-[(2-Bromophenyl)acetylamino]-3-(3-methylphenyl)-4-(4-pyrimidinyl)isoxazole] |
| 13.4 nM | 59.9% | Cc1cccc(-c2noc(NC(=O)Cc3ccccc3C)c2-c2ccncn2)c1 [Compound B-9, 3-(3-Methylphenyl)-5-[(2-methylphenyl)acetylamino]-4-(4-pyrimidinyl)isoxazole] |
| 52.6 nM | 33.1% | COc1cccc(CC(=O)Nc2onc(-c3ccc(F)c(C)c3)c2-c2ccncn2)c1 [Compound B-12, 5-[(3-Methoxyphenyl)acetylamino]-3-(3-methyl-4-fluorophenyl)-4-(4-pyrimidinyl)isoxazole] |
| 13.7 nM | 52.6% | Cc1cc(-c2noc(NC(=O)Cc3ccccc3C)c2-c2ccncn2)ccc1F [Compound B-13, 3-(3-Methyl-4-fluorophenyl)-5-[(2-methylphenyl)acetylamino]-4-(4-pyrimidinyl)isoxazole] |
| 52.9 nM | 23.3% | Cc1cccc(-c2noc(NC(=O)CCc3ccccc3C)c2-c2ccncc2)c1 [Compound B-15, 3-(3-Methylphenyl)-5-[(2-methylphenyl)propionylamino]-4-(4-pyridyl)isoxazole] |
| 58.1 nM | 50.5% | Cc1ccc(F)c(-c2noc(NC(=O)CCc3cccc(Cl)c3)c2-c2ccncc2)c1 [Compound B-16, 5-[(3-Chlorophenyl)propionylamino]-3-(2-fluoro-5-methyl-phenyl)-4-(4-pyridyl)isoxazole] |
| 45.5 nM | 25.5% | Cc1cccc(-c2nn(C)c(COC(=O)c3ccccc3)c2-c2ccncc2)c1 [Compound B-22] |
| 26.5 nM | 28.3% | CCn1nc(-c2cccc(C)c2)c(-c2ccncc2)c1COC(=O)c1ccccc1 [Compound B-23] |
